Experimental data published in US11957783B2, “Topical immunosensitizers to treat viral and fungal infections” (Squarex, LLC, priority 2018, dated 2024).

Legend:
[1] = tested on: peripheral blood mononuclear cells (PBMC); experiment: PBMC proliferation in vitro (tritiated thymidine incorporation), Example 1; format: cell-based, human; conditions: for PBMC Percent proliferation, normalized all three stimuli: normalized to average of group A day 57, n = 36; for PBMC Percent proliferation: n = 12; for Percent proliferation: 2 subjects with largest and smallest day 57-day 1 difference removed, n = 10
Experimental: (§1) After a screening visit at which blood was drawn to test for IgG antibody against HSV-1 and subjects were interviewed for inclusion/exclusion criteria, selected subjects returned for blood draws on day 1. After the blood draw on day 1, subjects in group A only were dosed with SADBE. A petrolatum donut was applied with a cotton swab to form about a 1 cm diameter donut on skin on the inner aspect of the upper arm. Then a separate cotton swab was dipped in a 2% SADBE solution (w/v) in DMSO, and the swab was then used to apply about 10-20 mg of solution over about a 1 cm diameter circle within the petrolatum donut. Immediately after application, the application site was covered with TEGADERM. Subjects were advised to remove the TEGADERM and rinse and wipe the spot three hours later. The group A subjects then returned for blood draws on days 15 and 57 and were queried about adverse events on those dates.
PBMC were isolated using SepMate PBMC isolation tubes (Stem Cell Technologies, Vancouver, Canada) and Ficoll-Paque according to the manufacturer's instructions. PBMC were isolated and suspended in negative control medium at 2 million cells/ml. PBMC suspension (100 μL) was added to 100 μL of medium in quadruplicate in 96-well plates. The plates were prepared in advance and stored at −70° C. The wells were in five different conditions in quadruplicate with these final concentrations after addition of the 100 μL of PBMC suspension in negative control medium. • 1. Negative control in medium (RPMI with glutamine and pen/strep, supplemented with 10% human A/B serum). • 2. Medium plus 16 μg/ml protein from heat-inactivated HSV-1-infected Vero cell extracts. • 3. Medium plus heat-inactivated HSV-1 cell-free virus at a final 7.5 million pfu/ml. • 4. Medium plus Candida cell extract. (Greer item number M15A50, 20,000 pnu/ml allergenic extract mixed molds Candida albicans, was diluted 1/50 into medium). • 5. Positive control, medium plus 10 μg/ml concanavalin A.
A second plate was incubated for 4 days. On the 4th day 1 μCi of tritiated thymidine in 50 μl of fresh negative control medium was added to each well. After 22 hours incubation the cells were harvested onto a filter mat and each well counted by scintillation counting for tritium incorporation into DNA as a quantitative measure of cell division.
The relative proliferation for each test condition was calculated as (avg. CPM test condition−avg. CPM negative control)/(avg. CPM positive control−avg. CPM negative control). The average CPM is the average tritium counts per minute of the 4 wells in a given test condition for a given collection point of a given patient. To calculate the normalized proliferation to all three stimuli, each data point was converted to a percentage proliferation relative to the average proliferation to that stimulus in group C or group A day 57, whichever was being compared to.
Immediately after the blood collection on day 1, the group A subjects (frequent cold sore sufferers) were treated with one dose of topical 2% SADBE in DMSO applied to the inner aspect of the subject's arm. They returned for blood collection on day 15 and day 57, two and 8 weeks after the single dose of drug. The relative proliferation of PBMC from the group A subjects collected on days 1, 15, and 57, in response to the stimuli, is shown in Table 4.

[2] = tested on: blood cells (B-Cells, T-Cells, helper/cytotoxic); experiment: Blood cell counts of subjects; format: in vivo, human; conditions: for Absolute Count CD19 (B-Cells), group average / Helper/Cytotoxic Ratio, group average / Percentage CD3 (T-Cells), group average / Percentage CD19 (B-Cells), group average / T-cell to B-cell ratio, group average: n = 12
Experimental: as §1
(§2) At this study visit where blood was drawn it was tested for blood cell counts, various cytokine levels, and anti-HSV-1 IgG quantitative levels.
Certain blood cell count parameters were measured in the study. Differences vs. group A day 1 that are statistically significant are highlighted in bold underline.

[3] = tested on: anti-HSV-1 IgG; experiment: Serum anti-HSV-1 IgG quantitative levels; format: in vivo, human; conditions: for Level of anti-HSV1 IgG, group average: n = 12
Experimental: as §1, §2
Anti-HSV-1 IgG was quantified in serum collected at each study visit.

[4] = Adverse events after single topical SADBE dose, Phase 1 study (Example 1); format: in vivo, human
Experimental: as §1
Of the 12 subjects treated, two experienced stinging at the application site, and one had nausea that was ruled possibly related to the study drug.

[5] = tested on: herpes labialis outbreak; conditions: 2.0% SADBE in DMSO once to arm; placebo 40 days; P=0.009; previous trial (Palli 2017); cited from earlier work

## CCCCOc1c(OCCCC)c(=O)c1=O [SADBE, 3,4-Dibutoxy-3-cyclobutene-1,2-dione]
[1]; group A Day 15
  PBMC Percent proliferation, normalized all three stimuli: 71.65%
[1]; group A Day 57, largest and smallest difference data points removed, n = 30
  Percent proliferation, normalized all three stimuli: 99.97%
[1]; group A Day 57
  PBMC Percent proliferation, normalized all three stimuli: 99.97%
[1]; stimulus Candida extract, group A Day 15 after one SADBE treatment
  PBMC Percent proliferation: 3.33%
[1]; stimulus Candida extract, group A Day 57
  Percent proliferation: 3.19%
[1]; stimulus Candida extract, group A Day 57 after one SADBE treatment
  PBMC Percent proliferation: 7.35%
[1]; stimulus HSV-1-infected cell extracts, group A Day 15 after one SADBE treatment
  PBMC Percent proliferation: 15.43%
[1]; stimulus HSV-1-infected cell extracts, group A Day 57
  Percent proliferation: 15.78%
[1]; stimulus HSV-1-infected cell extracts, group A Day 57 after one SADBE treatment
  PBMC Percent proliferation: 16.96%
[1]; stimulus HSV-1 virus, group A Day 15 after one SADBE treatment
  PBMC Percent proliferation: 10.52%
[1]; stimulus HSV-1 virus, group A Day 57
  Percent proliferation: 12.88%
[1]; stimulus HSV-1 virus, group A Day 57 after one SADBE treatment
  PBMC Percent proliferation: 13.37%
[2]; A15 / group A day 1
  Absolute Count CD19 (B-Cells), Sample/A1: 0.88
  Helper/Cytotoxic Ratio, Sample/A1: 0.68
  Percentage CD3 (T-Cells), Sample/A1: 1.02
  Percentage CD19 (B-Cells), Sample/A1: 0.83
  T-cell to B-cell ratio, Sample/A1: 1.35
[2]; A15 minus group A day 1
  Absolute Count CD19 (B-Cells), Sample minus A1: −22.63 cells/mm^3
  Helper/Cytotoxic Ratio, Sample minus A1: −1.67
  Percentage CD3 (T-Cells), Sample minus A1: 1.42%
  Percentage CD19 (B-Cells), Sample minus A1: −2.08%
  T-cell to B-cell ratio, Sample minus A1: 2.41
[2]; A57 / group A day 1
  Absolute Count CD19 (B-Cells), Sample/A1: 0.99
  Helper/Cytotoxic Ratio, Sample/A1: 0.83
  Percentage CD3 (T-Cells), Sample/A1: 1.03
  Percentage CD19 (B-Cells), Sample/A1: 0.95
  T-cell to B-cell ratio, Sample/A1: 1.01
[2]; A57 minus group A day 1
  Absolute Count CD19 (B-Cells), Sample minus A1: −1.85 cells/mm^3
  Helper/Cytotoxic Ratio, Sample minus A1: −0.90
  Percentage CD3 (T-Cells), Sample minus A1: 2.58%
  Percentage CD19 (B-Cells), Sample minus A1: −0.58%
  T-cell to B-cell ratio, Sample minus A1: 0.69
[2]; group A day 15 (A15)
  Absolute Count CD19 (B-Cells), group average: 171.74 cells/mm^3
  Helper/Cytotoxic Ratio, group average: 3.58
  Percentage CD3 (T-Cells), group average: 77.50%
  Percentage CD19 (B-Cells), group average: 10.17%
  T-cell to B-cell ratio, group average: 9.22
[2]; group A day 57 (A57)
  Absolute Count CD19 (B-Cells), group average: 192.52 cells/mm^3
  Helper/Cytotoxic Ratio, group average: 4.35
  Percentage CD3 (T-Cells), group average: 78.67%
  Percentage CD19 (B-Cells), group average: 11.67%
  T-cell to B-cell ratio, group average: 7.50
[3]; A15 / group A day 1
  Level of anti-HSV1 IgG, Sample/A1: 1.13
[3]; A15 minus group A day 1
  Level of anti-HSV1 IgG, Sample minus A1: 1.08 IV
[3]; A57 / group A day 1
  Level of anti-HSV1 IgG, Sample/A1: 0.91
[3]; A57 minus group A day 1
  Level of anti-HSV1 IgG, Sample minus A1: −0.73 IV
[3]; serum, after one SADBE dose, P<0.01
  change in anti-HSV1 IgG from day 15 to day 57 in group A: highly significant decrease
[3]; serum, group A day 15 (A15)
  Level of anti-HSV1 IgG, group average: 9.39 IV
[3]; serum, group A day 57 (A57)
  Level of anti-HSV1 IgG, group average: 7.58 IV
[4]; 12 subjects treated
  rashes or delayed-type hypersensitivity reactions: No rashes or delayed-type hypersensitivity reactions were reported
[4]; 12 subjects, single topical 2% SADBE in DMSO on arm
  tolerability of study drug: well tolerated
[4]; of the 12 subjects treated
  subjects who experienced stinging at the application site: two
  subjects with nausea ruled possibly related to the study drug: one
[5]
  median time to the next outbreak: more than 122 days
